Here are results for 2 compounds from ChEMBL document CHEMBL4417637, “Sensitization of cancer cells to nampt inhibitors by nicotinic acid phosphoribosyltransferase neutralization” (2017).

The target of data set [1] is T1, Nicotinate phosphoribosyltransferase (Homo sapiens) (UniProt Q6XQN6).
T1 sequence (whole entry): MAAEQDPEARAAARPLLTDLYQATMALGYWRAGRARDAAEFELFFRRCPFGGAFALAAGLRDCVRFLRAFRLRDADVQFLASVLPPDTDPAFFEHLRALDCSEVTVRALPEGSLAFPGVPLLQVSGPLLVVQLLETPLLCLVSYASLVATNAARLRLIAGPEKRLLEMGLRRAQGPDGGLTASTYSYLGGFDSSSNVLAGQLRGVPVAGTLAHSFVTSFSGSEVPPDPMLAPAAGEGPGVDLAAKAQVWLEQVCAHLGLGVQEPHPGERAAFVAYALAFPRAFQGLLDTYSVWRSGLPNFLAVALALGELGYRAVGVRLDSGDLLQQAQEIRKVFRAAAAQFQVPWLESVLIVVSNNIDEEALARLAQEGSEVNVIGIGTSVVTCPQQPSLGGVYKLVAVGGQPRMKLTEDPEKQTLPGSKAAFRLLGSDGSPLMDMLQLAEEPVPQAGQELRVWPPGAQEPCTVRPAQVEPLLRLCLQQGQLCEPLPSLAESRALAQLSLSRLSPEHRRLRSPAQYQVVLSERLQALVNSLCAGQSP
As to the kind of experiment: Inhibition of NAPRT in human OVCAR5 cells assessed as potentiation of NAMPT inhibitor FK866-induced cytotoxicity by measuring reduction in cell viability at 300 uM to 1 mM incubated for 72 hrs by SRB assay. Type of data set: cell-based.

A further data set has as its system NAMALVA. As to the kind of experiment: Potentiation of NAMPT inhibitor 10 mg/kg, ip bid FK866-induced antitumor activity in human NAMALWA cells xenografted in SCID mouse assessed as increase in mouse survival at 35 mg/kg, ip bid up to 45 days. Format: functional, organism-based.
A short description of data set [2]: Toxicity in NAMPT inhibitor 10 mg/kg, ip bid FK866 treated SCID mouse xenografted with human NAMALWA cells assessed as induction of obvious signs of clinical toxicity at 35 mg/kg, ip bid up to 45 days. Format: organism-based. To be noted: in vivo, 1080 h.

Active and inactive are the calls of the source. The calls are words filed in the database; no cut-off is given here.

In the case of `O=C(O)c1ccccc1O`, the inhibition result in data set [1] is “Active”.
Regarding `CC(=O)Oc1ccccc1C(=O)O` [ASPIRIN], in the data set on NAMALVA, the result was Active. The Activity entry in data set [2] is “Non-Toxic”.
